# Measurements as given in patent US9777037B2, “Neurosteroid compounds” (BIONATURE E. A. LTD., priority 2007, dated 2017).
# Tested on: MCF-7 cells
# Test: MCF-7 cell growth (MTT), estrogen agonism/antagonism
# Format: cell-based, human
# Text: Treatment of postmenopausal syndromes with 17β-estradiol (E2) is associated with a higher risk of developing breast and/or endometrial cancer (Arch Intern Med. 166, 1027 (2006)). E2 stimulation of the proliferation of cancer cells is driven by estrogen receptor alpha (ERα) (Mol. Endocrinol. 13, 969 (1999)). Since BNN-50, BNN-93 and BNN-124 may form two hydrogen bonds with an O—O distance of 10.9-12.5 Å and thus may fit the ERα binding cavity (Chem. Biol. 11, 397 (2004)), it was imperative to examine the estrogen agonism/antagonism properties of these neurosteroids using human adenocarcinoma cells from breast (MCF-7 cells) and uterus (Ishikawa cells) as reporters. […] Differences between control and neurosteroid-treated cells were assessed using one-way ANOVA. […]
# To determine neurosteroid effects on the growth of MCF-7 human mammary (from ATCC) and Ishikawa endometrial adenocarcinoma cells (from ECACC), the cells were cultured at 37° C. in Dulbecco's Minimal Essential Medium (DMEM) supplemented with 10% Fetal Bovine Serum (FBS, from Biochrom) in 5% CO2 and subcultured using a trypsin 0.25%-EDTA 0.02% solution. Neurosteroid effects on the growth of the cells were assessed using MTT [3-(4,5-dimethylthiazol-2-yl)-2,5-diphenyltetrazolium bromide] and standard methodology (Chem. Biol. 11, 397 (2004)). […]
structure (smiles),measurement,setting,value
"C[C@]12CC[C@H](O)CC1=CCC1C2CC[C@@]2(C)C1CC[C@@]21CO1 (stereo partly drawn) [BNN-50, 17β-spiro-[5-androsten-17,2′-oxiran]-3β-ol]","E2 agonism (at 1 uM), MCF-7 cell growth",,non-significant
same,"E2 antagonism (at 1 uM), MCF-7 cell growth",against E2 at 0.1 nM,non-significant
